Laboratory results as given in patent US20110039762A1, “TARGETED ANTIMICROBIAL MOIETIES” (C3 JIAN, INC., priority 2009, published 2011).

Key:
[1] = test system: MRSA; assay: MIC (broth microdilution); format: cell-based, Methicillin-resistant Staphylococcus aureus
Method: (§1) Typically, the in vitro antimicrobial activity of antimicrobial agents is tested using standard NCCLS bacterial inhibition assays, or MIC tests (see, National Committee on Clinical Laboratory Standards “Performance Standards for Antimicrobial Susceptibility Testing,” NCCLS Document M100-S5 Vol. 14, No. 16, December 1994; “Methods for dilution antimicrobial susceptibility test for bacteria that grow aerobically-Third Edition,” Approved Standard M7-A3, National Committee for Clinical Standards, Villanova, Pa.).
(§2) Briefly, ˜1×10^5 cfu/mL bacteria were diluted in TH (S. mutans), or Mueller-Hinton (MH) broth (all other organisms) and distributed to 96-well plates. Serially-diluted (2-fold) peptides were then added and the plates incubated at 37° C. for 18-24 h. […] All experiments were conducted 10 times.

[2] = test system: S. mutans; format: cell-based, Streptococcus mutans; settings: S. mutans; as to Organism, effect (morphology, biofilm and growth disruption): test concentration or dose not given here; as to Organism, effect: test concentration or dose not given here
[3] = test system: P. aeruginosa; format: cell-based, Pseudomonas aeruginosa; settings: P. aeruginosa
Method: as §1, §2

[4] = test system: B. subtilis; assay: Kill or inhibit growth/proliferation; morphology, biofilm and growth disruption (Tables 5, 6); format: cell-based, Bacillus subtilis; parameters: key: A: Peptide aggregates; B: Less hyphal formation; Clumps; Diffuse clumps and small polyps; F: Diffuse growth; H: Thin; I: Growth inhibition; Microcolony formation; Rippled; Small polyps; Thick; W: Halo formation on top, microlonies on bottom; also: test concentration or dose not given here
[5] = test system: microorganisms; assay: Peptides having multiple activities (targeting/binding, antimicrobial, growth or phenotype altering)
From the text: In certain embodiments, peptides described herein can have multiple activities. Thus for example, a peptide can have both binding/targeting activity and antimicrobial activity. Such peptides can be used, e.g., in a chimeric construct, for any or all of these properties. Thus, for example, a peptide designated “B” in Table 8 can be used as a targeting peptide. If it is also designated G or M it can also be used for antimicrobial activity.

[6] = test system: S. epidermidis; assay: Kill or inhibit growth/proliferation; morphology, biofilm and growth disruption (Tables 5, 6); format: cell-based, Staphylococcus epidermidis; parameters: key: A: Peptide aggregates; B: Less hyphal formation; Clumps; Diffuse clumps and small polyps; F: Diffuse growth; H: Thin; I: Growth inhibition; Microcolony formation; Rippled; Small polyps; Thick; W: Halo formation on top, microlonies on bottom; also: test concentration or dose not given here
[7] = test system: S. pneumoniae; assay: as above; format: cell-based, Streptococcus pneumoniae; parameters: key: A: Peptide aggregates; B: Less hyphal formation; Clumps; Diffuse clumps and small polyps; F: Diffuse growth; H: Thin; I: Growth inhibition; Microcolony formation; Rippled; Small polyps; Thick; W: Halo formation on top, microlonies on bottom
[8] = test system: A. baumannii; assay: MIC (broth microdilution); format: cell-based, Acinetobacter baumannii
Method: as §1, §2

[9] = test system: microorganisms (e.g., bacteria, yeasts, fungi); assay: Targeting peptide binding to target microorganisms (Table 3); settings: preferably 1x PBS
[10] = test system: C. jejuni; assay: Kill or inhibit growth/proliferation; morphology, biofilm and growth disruption (Tables 5, 6); format: cell-based, Campylobacter jejuni; parameters: key: A: Peptide aggregates; B: Less hyphal formation; Clumps; Diffuse clumps and small polyps; F: Diffuse growth; H: Thin; I: Growth inhibition; Microcolony formation; Rippled; Small polyps; Thick; W: Halo formation on top, microlonies on bottom; also: test concentration or dose not given here
[11] = test system: MRSA; assay: as above; format: cell-based, Methicillin-resistant Staphylococcus aureus; parameters: key: A: Peptide aggregates; B: Less hyphal formation; Clumps; Diffuse clumps and small polyps; F: Diffuse growth; H: Thin; I: Growth inhibition; Microcolony formation; Rippled; Small polyps; Thick; W: Halo formation on top, microlonies on bottom
[12] = test system: B. subtilis; assay: MIC (broth microdilution); format: cell-based, Bacillus subtilis
Method in brief: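 Peptides are serially diluted 2-fold and added to Mueller-Hinton broth cultures at ˜1×10^5 cfu/mL, then incubated at 37° C. for 18-24 h.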

[13] = test system: M. luteus; assay: Kill or inhibit growth/proliferation; morphology, biofilm and growth disruption (Tables 5, 6); format: cell-based, Micrococcus luteus; parameters: key: A: Peptide aggregates; B: Less hyphal formation; Clumps; Diffuse clumps and small polyps; F: Diffuse growth; H: Thin; I: Growth inhibition; Microcolony formation; Rippled; Small polyps; Thick; W: Halo formation on top, microlonies on bottom; also: test concentration or dose not given here
[14] = test system: E. coli; assay: as above; format: cell-based, Escherichia coli; parameters: key: A: Peptide aggregates; B: Less hyphal formation; Clumps; Diffuse clumps and small polyps; F: Diffuse growth; H: Thin; I: Growth inhibition; Microcolony formation; Rippled; Small polyps; Thick; W: Halo formation on top, microlonies on bottom
[15] = test system: C. jeikeium; assay: as above; format: cell-based, Corynebacterium jeikeium; parameters: key: A: Peptide aggregates; B: Less hyphal formation; Clumps; Diffuse clumps and small polyps; F: Diffuse growth; H: Thin; I: Growth inhibition; Microcolony formation; Rippled; Small polyps; Thick; W: Halo formation on top, microlonies on bottom; also: test concentration or dose not given here
[16] = test system: S. mutans; assay: as above; format: cell-based, Streptococcus mutans; parameters: key: A: Peptide aggregates; B: Less hyphal formation; Clumps; Diffuse clumps and small polyps; F: Diffuse growth; H: Thin; I: Growth inhibition; Microcolony formation; Rippled; Small polyps; Thick; W: Halo formation on top, microlonies on bottom
[17] = test system: P. mirabilis; assay: as above; format: cell-based; parameters: key: A: Peptide aggregates; B: Less hyphal formation; Clumps; Diffuse clumps and small polyps; F: Diffuse growth; H: Thin; I: Growth inhibition; Microcolony formation; Rippled; Small polyps; Thick; W: Halo formation on top, microlonies on bottom; also: test concentration or dose not given here
[18] = test system: E. faecalis; assay: as above; format: cell-based, Enterococcus faecalis; parameters: key: A: Peptide aggregates; B: Less hyphal formation; Clumps; Diffuse clumps and small polyps; F: Diffuse growth; H: Thin; I: Growth inhibition; Microcolony formation; Rippled; Small polyps; Thick; W: Halo formation on top, microlonies on bottom; also: test concentration or dose not given here
[19] = test system: E. coli; format: cell-based, Escherichia coli; settings: E. coli; as to Organism, effect (morphology, biofilm and growth disruption): test concentration or dose not given here; as to Organism, effect: test concentration or dose not given here
Method: as §1, §2

[20] = test system: S. pneumoniae; assay: MIC (broth microdilution); format: cell-based, Streptococcus pneumoniae
Method: as §1, §2
For Organism, effect (morphology, biofilm and growth disruption) in this document: test concentration or dose not given here.
For Organism, effect in this document: test concentration or dose not given here.

Row | Substance | Activities [5] | Organism, effect [6] | Organism, effect [7] | Organism, effect [11] | Organism, effect [13] | Organism, effect [14] | Organism, effect [16] | Organism, effect [17] | also measured
1 | FIRKFLQKLHL [Peptide K-16] |  |  |  |  |  |  |  |  | MIC [1]: MRSA , 25 μM; MIC [2]: S. mutans, 8 μM; MIC [3]: P. aeruginosa, 12.5 μM
2 | MGIIAGIIKFIKGLIEKFTGK [PF-006] | G B M | S. epidermidis (D) | S. pneumoniae (R) | MRSA (I) | M. luteus (A) |  |  |  | MIC [1]: MRSA , 50 μM; Organism, effect [4]: B. subtilis (I); MIC [8]: A. baumannii, 50 μM; Target(s) ([9]; microorganism the targeting peptide binds, binding in aqueous buffers varied by peptide solubility): S. epidermidis and M. luteus and E. coli and P. aeruginosa and MRSA and E. faecalis and C. jeikeium and C. jejuni; Organism, effect [10]: C. jejuni (D); MIC [12]: B. subtilis, 25 μM
3 | MIHLTKQNTMEALHFIKQFYDMFFILNFNV [PF-040] | G B | S. epidermidis (D) | S. pneumoniae (D) | MRSA (D) | M. luteus (D) | E. coli (C) | S. mutans (F) | P. mirabilis (C) | Organism, effect [15]: C. jeikeium (D); Organism, effect [4]: B. subtilis (D); Organism, effect [10]: C. jejuni (D)
4 | PF-578: peptide having multiple activities (chain 1 QKANLRIGFTYTSDSNVCNLTFALLGSK; chain 2 QKANLRIGFTYTSDSNVCNLTFALLGSK; Peptide with targeting and/or antimicrobial activity) | G B | S. epidermidis (D) | S. pneumoniae (D) | MRSA (C) | M. luteus (C) | E. coli (C) | S. mutans (D) | P. mirabilis (C) | 
5 | PF-612: peptide having multiple activities (GTTLKYGLERQLKIDIHPEITIINLNGGADEFAKL; Peptide with targeting and/or antimicrobial activity) | G B | S. epidermidis (C) | S. pneumoniae (C) | MRSA (C) | M. luteus (A) | E. coli (C) | S. mutans (F) | P. mirabilis (C) | 
6 | PF-624 (VFLLDSYCFVKINL; Peptide with targeting and/or antimicrobial activity) |  | S. epidermidis (D) | S. pneumoniae (D) | MRSA (C) | M. luteus (C) | E. coli (C) | S. mutans (D) | P. mirabilis (C) | 
7 | PF-634: peptide having multiple activities (chain 1 MPKARPVNHNKKKSKITIKSNFTLFYMFNP; chain 2 MPKARPVNHNKKKSKITIKSNFTLFYMFNP; Peptide with targeting and/or antimicrobial activity) | G B | S. epidermidis (D) | S. pneumoniae (D) | MRSA (D) | M. luteus (C) | E. coli (C) | S. mutans (D) | P. mirabilis (C) | 
8 | PF-741: peptide having multiple activities (AKREDTVAAQIGANILNLIQ; Peptide with targeting and/or antimicrobial activity) | G B |  |  |  |  |  |  |  | Organism, effect (morphology, biofilm and growth disruption) [14]: E. coli (C); Organism, effect (morphology, biofilm and growth disruption) [6]: S. epidermidis (C); Organism, effect (morphology, biofilm and growth disruption) [7]: S. pneumoniae (D); Organism, effect (morphology, biofilm and growth disruption) [16]: S. mutans (D); Target(s) (microorganisms bound by the targeting peptide) ([9]; peptide binding in aqueous buffers varied by peptide solubility): S. epidermidis and M. luteus and P. mirabilis and P. aeruginosa and C. albicans and MRSA and S. pneumoniae and E. faecalis; Organism, effect (morphology, biofilm and growth disruption) [11]: MRSA (C); Organism, effect (morphology, biofilm and growth disruption) [17]: P. mirabilis (C); Organism, effect (morphology, biofilm and growth disruption) [13]: M. luteus (C)
9 | PF-770: peptide having multiple activities (GVGIGFIMMGVVGYAVKLVHIPIRYLIV; Peptide with targeting and/or antimicrobial activity) | G B |  |  |  |  |  |  |  | Organism, effect (morphology, biofilm and growth disruption) [14]: E. coli (C); Organism, effect (morphology, biofilm and growth disruption) [6]: S. epidermidis (D); Organism, effect (morphology, biofilm and growth disruption) [7]: S. pneumoniae (C); Organism, effect (morphology, biofilm and growth disruption) [16]: S. mutans (D); Organism, effect (morphology, biofilm and growth disruption) [11]: MRSA (D); Organism, effect (morphology, biofilm and growth disruption) [17]: P. mirabilis (C); Organism, effect (morphology, biofilm and growth disruption) [13]: M. luteus (C)
10 | SKFKVLRKIIIKEYKGELMLSIQKQR [PF-530] | G M | S. epidermidis (H) | S. pneumoniae (R) | MRSA (C) |  | E. coli (R) |  |  | Organism, effect [18]: E. faecalis (C); MIC [8]: A. baumannii, 25 μM
11 | TKKIELKRFVDAFVKKSYENYILERELKKLIKAINEELPTK [PF-600] | G B M | S. epidermidis (C) | S. pneumoniae (R) | MRSA (M) | M. luteus (C) | E. coli (H) | S. mutans (S) |  | MIC [19]: E. coli, 50 μM; MIC [20]: S. pneumoniae, 50 μM
